# Results reported in US20250304623A1, “PEPTIDES FOR INTRACELLULAR DELIVERY” (UNIVERSIDADE DE SANTIAGO DE COMPOSTELA, priority 2022, published 2025).
# *: point of attachment. NHNH2 = NN*
# Columns and labels:
# Format in all cases: cell-based
# [1] = tested on: HepG2 cells expressing EGFP; test: Cas9-RNP delivery against EGFP (gene editing, plate reader), HepG2
# In short: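 Gene editing in EGFP-expressing HepG2 cells was estimated as the percentage drop in GFP fluorescence, measured in triplicate on a plate reader 72 h after Cas9-RNP delivery with amphiphiles. The RNP was made from annealed crRNA/tracrRNA plus 4 μM Cas9 and complexed with amphiphile before a 4 h exposure. Background from untreated control cells was subtracted.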
# [2] = tested on: HCT116 cells; test: EGFP mRNA delivery, robotic library screening, HCT116
# In short: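 Transfection used amphiphile at final 2.5, 5 or 10 μM with EGFP mRNA (25 ng/well) for 4 h without serum, then medium with 10% FBS. Plate-reader EGFP signal at 72 h, untreated background removed, mean of triplicates.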
# [3] = tested on: Hek293 cells expressing EGFP; test: Cas9-RNP delivery against EGFP (gene editing, plate reader), Hek293
# In short: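 After 4 h of exposure to RNP/amphiphile complexes, cells received fresh DMEM with 10% FBS. EGFP fluorescence was measured by plate reader 72 h later. Gene editing was expressed as percent reduction in GFP fluorescence relative to untreated cells, after subtracting untreated-control background. Values are triplicate means.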
# [4] = tested on: Hek293 cells; test: RLuc pDNA delivery, robotic library screening, Hek293
substance,measurement,setting,value
"Ac-RK*LRRK*L-NH2 (Ac-RK(NHNH2)LRRK(NHNH2)L-NH2; not fully specified; printed as Ac-RK*LRRK*L-NH2; also: K*2,K*6: native or modified lysine (ε-amide to a linker)) [Peptide 7.2]","percentage of gene editing, GFP fluorescence intensity decrease (% of reduction)","[1]; Dodecanal, 5 μM",−23%
same,"percentage of gene editing, GFP fluorescence intensity decrease (% of reduction)","[1]; Dodecanal, 10 μM",−56%
same,"percentage of gene editing, GFP fluorescence intensity decrease (% of reduction)","[1]; Dodecanal, 15 μM",−47%
same,"percentage of gene editing, GFP fluorescence intensity decrease (% of reduction)","[1]; Myristoleyl, 5 μM",−42%
same,"percentage of gene editing, GFP fluorescence intensity decrease (% of reduction)","[1]; Myristoleyl, 10 μM",−40%
same,"percentage of gene editing, GFP fluorescence intensity decrease (% of reduction)","[1]; Myristoleyl, 15 μM",−21%
same,mean fluorescence intensity (EGFP mRNA),"[2]; Dodecanal, 2.5 μM",613
same,mean fluorescence intensity (EGFP mRNA),"[2]; Dodecanal, 5 μM",672
same,mean fluorescence intensity (EGFP mRNA),"[2]; Dodecanal, 10 μM",1077
same,mean fluorescence intensity (EGFP mRNA),"[2]; Myristoleyl, 2.5 μM",4952
same,mean fluorescence intensity (EGFP mRNA),"[2]; Myristoleyl, 5 μM",1710
same,"percentage of gene editing, GFP fluorescence intensity decrease (% of reduction)","[3]; Dodecanal, 5 μM",−21%
same,"percentage of gene editing, GFP fluorescence intensity decrease (% of reduction)","[3]; Dodecanal, 15 μM",−29%
same,"percentage of gene editing, GFP fluorescence intensity decrease (% of reduction)","[3]; Myristoleyl, 5 μM",−23%
same,mean luminescent intensity (RLuc pDNA),"[4]; Dodecanal, 10 μM",8723 RLU
same,mean luminescent intensity (RLuc pDNA),"[4]; Dodecanal, 15 μM",11358 RLU
same,mean luminescent intensity (RLuc pDNA),"[4]; Myristoleyl, 5 μM",5382 RLU
same,mean luminescent intensity (RLuc pDNA),"[4]; Myristoleyl, 10 μM",24464 RLU
same,mean luminescent intensity (RLuc pDNA),"[4]; Myristoleyl, 15 μM",8475 RLU
